For two compounds, Activity, IC50 and inhibition results are on record in ChEMBL document CHEMBL5528002, “Identification of selective 5-LOX and FLAP inhibitors as novel anti-inflammatory agents by ligand-based virtual screening” (Eur J Med Chem, 2024).

Each structure is given as a SMILES string.

Data set [1] concerns Macrophage cell line. Description: Effect on lipid mediator formation in human M2-like phenotype MDM cells by measuring RvD2 formation at 10 uM pre-incubated for 15 mins followed by SACM stimulation and measured after 90 mins by UPLC-MS/MS analysis (reference value: 6 +/- 1 pg/ml). The class given is functional. The note with it: time 105 min, 1.75 h.
Data set [2] relates to Macrophage cell line. Description: Effect on lipid mediator formation in human M2-like phenotype MDM cells by measuring RvD5 formation at 10 uM pre-incubated for 15 mins followed by SACM stimulation and measured after 90 mins by UPLC-MS/MS analysis relative to control. The class given is functional. The note with it: time 105 min, 1.75 h.
The subject of data set [3] is Macrophage cell line. Briefly: Effect on lipid mediator formation in human M2-like phenotype MDM cells by measuring 5,15-diHETE formation at 10 uM pre-incubated for 15 mins followed by SACM stimulation and measured after 90 mins by UPLC-MS/MS analysis (reference value: 1231 +/- 356 pg/ml). The class given is functional. The note with it: time 105 min, 1.75 h.
Data set [4] deals with T1, Polyunsaturated fatty acid 5-lipoxygenase (Homo sapiens, UniProt P09917).
T1 sequence (P09917 whole entry): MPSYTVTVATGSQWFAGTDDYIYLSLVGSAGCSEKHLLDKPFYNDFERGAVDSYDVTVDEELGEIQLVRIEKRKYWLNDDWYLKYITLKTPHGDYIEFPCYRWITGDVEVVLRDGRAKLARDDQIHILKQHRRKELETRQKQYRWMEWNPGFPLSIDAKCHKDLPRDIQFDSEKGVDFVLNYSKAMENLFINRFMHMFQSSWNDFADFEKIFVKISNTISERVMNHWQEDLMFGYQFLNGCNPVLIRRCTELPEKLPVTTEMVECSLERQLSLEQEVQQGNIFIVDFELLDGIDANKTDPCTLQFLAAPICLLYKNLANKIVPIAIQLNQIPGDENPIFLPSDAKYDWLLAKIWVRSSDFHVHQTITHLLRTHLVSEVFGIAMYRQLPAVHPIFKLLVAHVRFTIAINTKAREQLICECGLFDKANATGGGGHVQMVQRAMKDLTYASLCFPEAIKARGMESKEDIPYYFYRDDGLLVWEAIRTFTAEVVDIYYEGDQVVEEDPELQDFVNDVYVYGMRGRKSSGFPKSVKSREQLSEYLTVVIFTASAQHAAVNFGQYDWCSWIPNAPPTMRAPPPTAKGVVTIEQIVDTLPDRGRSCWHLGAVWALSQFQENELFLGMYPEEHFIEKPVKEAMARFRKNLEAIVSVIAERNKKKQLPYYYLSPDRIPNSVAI
Description: Inhibition of human recombinant 5-LOX expressed in Escherichia coli BL21(DE3) using arachidonic acid as substrate preincubated with compound for 15 mins followed by substrate and CaCl2 addition measured after 10 mins by RP-HPLC analysis.

Data set [5] concerns the target T2, Bifunctional epoxide hydrolase 2 (Homo sapiens) (UniProt P34913).
T2 sequence (whole entry): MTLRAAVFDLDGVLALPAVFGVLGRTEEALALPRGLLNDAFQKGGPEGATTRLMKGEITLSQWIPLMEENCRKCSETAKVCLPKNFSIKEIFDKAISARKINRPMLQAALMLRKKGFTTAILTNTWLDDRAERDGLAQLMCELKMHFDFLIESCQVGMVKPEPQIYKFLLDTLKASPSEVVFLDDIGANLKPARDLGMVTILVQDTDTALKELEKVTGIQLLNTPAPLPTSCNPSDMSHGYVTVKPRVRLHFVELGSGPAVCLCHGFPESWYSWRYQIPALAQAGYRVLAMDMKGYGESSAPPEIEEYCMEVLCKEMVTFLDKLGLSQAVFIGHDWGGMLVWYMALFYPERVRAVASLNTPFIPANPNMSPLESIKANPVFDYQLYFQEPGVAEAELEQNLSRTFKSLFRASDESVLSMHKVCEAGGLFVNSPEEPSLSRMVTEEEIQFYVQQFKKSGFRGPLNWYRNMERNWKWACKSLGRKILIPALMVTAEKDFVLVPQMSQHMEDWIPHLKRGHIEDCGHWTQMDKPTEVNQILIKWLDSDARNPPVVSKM
Briefly: Inhibition of human sEH at 10 uM relative to control.

Data set [6] relates to Macrophage cell line. Briefly: Effect on lipid mediator formation in human M2-like phenotype MDM cells by measuring 5,15-diHETE formation at 10 uM pre-incubated for 15 mins followed by SACM stimulation and measured after 90 mins by UPLC-MS/MS analysis relative to control. The class given is functional. The settings on record: time 105 min, 1.75 h.
Data set [7] concerns Macrophage cell line. Description: Effect on lipid mediator formation in human M2-like phenotype MDM cells by measuring RvD5 formation at 10 uM pre-incubated for 15 mins followed by SACM stimulation and measured after 90 mins by UPLC-MS/MS analysis (reference value: 344 +/- 92 pg/ml). The class given is functional. The settings on record: time 105 min, 1.75 h.
The target of data set [8] is T1, Polyunsaturated fatty acid 5-lipoxygenase. Briefly: Inhibition of 5-LOX in human Neutrophil using arachidonic acid as substrate preincubated with compound for 15 mins followed by substrate and A23187 addition measured after 10 mins by RP-HPLC analysis. The class given is cell-based.
Data set [9] concerns Macrophage cell line. Description: Effect on lipid mediator formation in human M1-like phenotype MDM cells by measuring arachidonic acid formation at 10 uM pre-incubated for 15 mins followed by SACM stimulation and measured after 90 mins by UPLC-MS/MS analysis relative to control. The class given is functional. The note with it: time 105 min, 1.75 h.
Data set [10] concerns Macrophage cell line. Description: Effect on lipid mediator formation in human M2-like phenotype MDM cells by measuring MaR2 formation at 10 uM pre-incubated for 15 mins followed by SACM stimulation and measured after 90 mins by UPLC-MS/MS analysis (reference value: 16 +/- 1 pg/ml). The class given is functional. The settings on record: time 105 min, 1.75 h.
The test system of data set [11] is Macrophage cell line. Description: Effect on lipid mediator formation in human M2-like phenotype MDM cells by measuring LTB4 formation at 10 uM pre-incubated for 15 mins followed by SACM stimulation and measured after 90 mins by UPLC-MS/MS analysis relative to control. The class given is functional. The note with it: time 105 min, 1.75 h.
Data set [12] concerns Macrophage cell line. Description: Effect on lipid mediator formation in human M2-like phenotype MDM cells by measuring DHA formation at 10 uM pre-incubated for 15 mins followed by SACM stimulation and measured after 90 mins by UPLC-MS/MS analysis relative to control. The class given is functional. The note with it: time 105 min, 1.75 h.
The subject of the next data set is Macrophage. Briefly: Cytotoxicity against human MDM cells assessed as reduction in cell viability at 10 uM incubated for 24 hrs by MTT assay. The class given is toxicity, cell-based. The note with it: macrophage cell line.
The test system of data set [13] is Macrophage cell line. Briefly: Effect on lipid mediator formation in human M1-like phenotype MDM cells by measuring PGF2alpha formation at 10 uM pre-incubated for 15 mins followed by SACM stimulation and measured after 90 mins by UPLC-MS/MS analysis (reference value: 471 +/- 100 pg/ml). The class given is functional. The settings on record: time 105 min, 1.75 h.

For data set [14], the system named is Macrophage cell line. Description: Effect on lipid mediator formation in human M2-like phenotype MDM cells by measuring 5S,6R-diHETE formation at 10 uM pre-incubated for 15 mins followed by SACM stimulation and measured after 90 mins by UPLC-MS/MS analysis relative to control. The class given is functional. The settings on record: time 105 min, 1.75 h.
In data set [15] the test system is Macrophage cell line. Description: Effect on lipid mediator formation in human M1-like phenotype MDM cells by measuring 15-HEPE formation at 10 uM pre-incubated for 15 mins followed by SACM stimulation and measured after 90 mins by UPLC-MS/MS analysis relative to control. The class given is functional. The settings on record: time 105 min, 1.75 h.
The subject of data set [16] is Macrophage cell line. Briefly: Effect on lipid mediator formation in human M1-like phenotype MDM cells by measuring PGE2 formation at 10 uM pre-incubated for 15 mins followed by SACM stimulation and measured after 90 mins by UPLC-MS/MS analysis (reference value: 1789 +/- 871 pg/ml). The class given is functional. The settings on record: time 105 min, 1.75 h.

Regarding `COc1ccc(C2=C/C(=C/c3ccc(O)cc3O)C(=O)O2)cc1`, the Activity in the data set on Macrophage cell line [1] came out at 6 pg/mL; in the data set with Macrophage cell line [2], 167%; with Macrophage cell line [3], 479 pg/mL; in the data set on Macrophage cell line [6] it was 39%; in the data set on Macrophage cell line [7], 575 pg/mL; in the data set on Macrophage cell line [9] it was 116%. For the same compound, the Activity is 36 pg/mL in the data set with Macrophage cell line [10]; 4% in the data set on Macrophage cell line [11]; 106% with Macrophage cell line [12]; “Non-Toxic” in the data set with Macrophage; 419 pg/mL in the data set with Macrophage cell line [13]; 4% with Macrophage cell line [14]. In addition, the Activity with Macrophage cell line [15] was 98%; in the data set with Macrophage cell line [16], 1656 pg/mL. Moreover, the concentration for half-maximal inhibition (IC50) in data set [4] is greater than 10 µM; in data set [8], 0.9 µM. Moreover, the inhibition in data set [5] was greater than 35%.
As for `Oc1ccc(CCC2CCC(c3ccc(O)cc3)CO2)cc1` (centres undefined), the Activity with Macrophage cell line [1] was determined as 5 pg/mL; in the data set with Macrophage cell line [2] it was 105%; in the data set on Macrophage cell line [3] it was 751 pg/mL; in the data set with Macrophage cell line [6], 61%; with Macrophage cell line [7], 361 pg/mL; in the data set with Macrophage cell line [9] it was 108%. The Activity in the data set on Macrophage cell line [10] was 31 pg/mL; in the data set on Macrophage cell line [11], 14%; in the data set with Macrophage cell line [12], 107%; in the data set with Macrophage, “Non-Toxic”; with Macrophage cell line [13] it was 331 pg/mL; in the data set on Macrophage cell line [14], 7%. The Activity is 97% with Macrophage cell line [15] and 1236 pg/mL with Macrophage cell line [16]. Also, the values for the IC50 in [4] and in [8] were greater than 10 µM and 2.1 µM, respectively. In data set [5], this compound returned an inhibition greater than 35%.
